Peptide text beside a SMILES is read from it. * marks the point of attachment. Cbz = O=C(OCc1ccccc1)*
Tested on: DLD-1 cells
Test: chromosome alignment in cultures treated with proteosome inhibitor
Format: cell-based, human
Conditions: control cultures, 20 μM

CC(C)C[C@@H](C=O)NC(=O)[C@H](CC(C)C)NC(=O)[C@H](CC(C)C)NC(=O)OCc1ccccc1 [MG132] (Cbz-Leu-Leu-Leu-aldehyde)
proportion of metaphases: ~66%
proportion of prometaphases: ~25%

Reference: publication PMC2172902 (The Journal of Cell Biology, 2003)
